Measurements as given in PMC6602942, “Vertebrates originally possess four functional subtypes of G protein-coupled melatonin receptor” (Scientific Reports, 2019).
Values joined by “and” are separate entries in the source; they are usually repeats but may differ in a detail not shown here. Equal values may be shown once. Read-outs that look alike come from different tables or passages of the source. Each block holds one compound with its values, some of them ahead of it.

Experiments:
medaka MTNR1a [1] = target: T1, medaka MTNR1a (Oryzias latipes, UniProt H2LVT7); test: cAMP-responsive (CRE-luc) reporter gene assay, agonist mode; format: cell-based; settings: for RAA (%) MTNR1a (relative agonistic activity): maximal activity as percentage of that of melatonin; for agonistic activity in medaka MTNR1a: reporter assay without melatonin
From the text: (§1) Expression vectors for medaka mtnr genes, (pcDNA-OlMTNR1a, pcDNA-OlMTNR1b, pcDNA-OlMTNR1c and pcDNA-OlMTNR1a-like) were constructed by PCR amplification of the entire protein coding region, using primers which introduced in-frame Kozak sequence[33] at the 5′ end. A cyclic adenosine monophosphate (cAMP)-regulated reporter vector containing the luciferase gene under the control of a cAMP response element upstream of the TATA-like promoter region from the herpes simplex virus thymidine kinase promoter, named pCRE-luc, originated from the Pathway Profiling Luciferase System (Clontech). Hepa-E1 cells, i.e. epithelial-like Nile tilapia hepatocytes, were obtained from the Institute of Physical and Chemical Research (RIKEN) cell bank (Tsukuba, Japan). For MTNR1a, MTNR1b and MTNR1d, stable transfections were performed as described below. Hepa-E1 cells were seeded in 9 cm dishes prior to transfection. Both plasmids, pCRE-luc as well as expression vectors for medaka mtnrs were linearized by […] and transfected with X-tremeGENE 9 (Roche) according to the manufacturer’s instructions. Stably transfected cells were selected with G418. After selection, each colony was collected by pipetting. Sensitivity for cAMP in each clone was tested by forskolin treatment after seeding into 96-well plates with E-RDF medium (Kyokuto, Tokyo, Japan) and supplemented with 5% dextran-charcoal treated fetal bovine serum. After 24 h the cells were collected, and cellular luciferase activities were measured by luminescence assay with the Steady-Glo Assay System Kit (Promega) according to the manufacturer’s instructions. Forskolin-sensitive cell lines derived from co-transfection of pCRE-luc and pcDNA3.1(+) were developed as control lines and named null-CRE-luc. Forskolin-sensitive cell lines derived from co-transfection of pCRE-luc and each pcDNA-OlMTNR1 were selected for by sensitivity for melatonin.
(§2) For MTNR1c, transient transfection was performed as outlined below. The MTNR1c experiment was performed using Hepa-E1 cells in 9 cm dishes, which were transiently transfected by pcDNA-OlMTNR1c (500 ng) and pCRE-luc (5000 ng) by TransIT-X2 Dynamic Delivery System (Mirus) and incubated 24 h before seeding, following the manufacturer’s instructions. Cells derived from a chosen clone or MRNR1c-tranfected cells were seeded at 10^4 cells per well in 96-well luminometer plates. Then, cells were treated with test chemicals in triplicate at four-fold serial dilutions in the presence or absence of melatonin with 6.25 × 10^−7 M forskolin. For testing the antagonistic effect, reagents were mixed with melatonin at 90% effective concentration (EC90). Negative control wells were dosed with media plus 0.1% ethanol. Positive control wells were dosed with 1 μM melatonin. After 24 h, luciferase activities were measured as described above. Concentration-response curves were fitted and the EC50 or IC50 were calculated using sigmoidal fit in GraphPad Prism5. The relative agonistic activity (RAA) of each reagent was expressed as a percentage of the maximal activity for the reporter induction to that of melatonin. The antagonistic index (AI) of each reagent was expressed as a percentage of the maximal inhibition of the reagent. Maximal inhibition was calculated as the quotient of the subtraction of the luminescence for melatonin from the maximal luminescence for the reagent divided by the maximal inhibition of melatonin. When the reagent inhibits the transactivity to the same level of that of the vehicle control (forskolin), the AI equals 100%.

[2] = target: T2, medaka MTNR1a-like (MTNR1d) (Oryzias latipes, UniProt A0A3B3HMP3); test: as above; format: cell-based; settings: for Emax: read-out: RAA (%) MTNR1a-like (relative agonistic activity); for agonistic activity in medaka MTNR1d: reporter assay without melatonin
From the text: as §1, §2

medaka MTNR1c [3] = target: T3, medaka MTNR1c (Oryzias latipes, UniProt A0A0D6A8H7); test: as above; format: cell-based; settings: for Emax / RAA (%) MTNR1c (relative agonistic activity): maximal activity as percentage of that of melatonin, Hepa-E1 cells, forskolin, ND: not detected; for Emax: read-out: RAA (%) MTNR1c (relative agonistic activity)
From the text: as §1, §2

medaka MTNR1b [4] = target: T4, medaka MTNR1b (Oryzias latipes, UniProt A0ACM8R453); test: cAMP-responsive (CRE-luc) reporter gene assay, antagonist mode with EC90 melatonin; format: cell-based; settings: for AI (%) MTNR1b (antagonistic index): maximal inhibition of melatonin (EC90) effect, 100% = forskolin level, ND: not detected
T4 sequence (A0ACM8R453 1-364): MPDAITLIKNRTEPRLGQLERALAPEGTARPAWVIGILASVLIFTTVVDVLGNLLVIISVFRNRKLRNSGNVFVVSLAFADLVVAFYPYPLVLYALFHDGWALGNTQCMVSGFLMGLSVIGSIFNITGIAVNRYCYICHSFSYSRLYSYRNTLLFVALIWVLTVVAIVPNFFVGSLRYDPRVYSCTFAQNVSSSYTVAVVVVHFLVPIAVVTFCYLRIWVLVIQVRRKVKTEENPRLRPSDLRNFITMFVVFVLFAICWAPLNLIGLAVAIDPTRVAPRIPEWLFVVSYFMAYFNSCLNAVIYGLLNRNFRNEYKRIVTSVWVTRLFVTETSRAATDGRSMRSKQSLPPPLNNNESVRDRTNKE
From the text: as §1
(§3) For MTNR1c, transient transfection was performed as outlined below. […] After 24 h, luciferase activities were measured as described above. Concentration-response curves were fitted and the EC50 or IC50 were calculated using sigmoidal fit in GraphPad Prism5. The relative agonistic activity (RAA) of each reagent was expressed as a percentage of the maximal activity for the reporter induction to that of melatonin. The antagonistic index (AI) of each reagent was expressed as a percentage of the maximal inhibition of the reagent. Maximal inhibition was calculated as the quotient of the subtraction of the luminescence for melatonin from the maximal luminescence for the reagent divided by the maximal inhibition of melatonin. […]

medaka MTNR1c [5] = target: T3, medaka MTNR1c; test: as above; format: cell-based; settings: maximal inhibition of melatonin (EC90) effect; 100% = forskolin level; ND: not detected
From the text: as §1, §3

medaka MTNR1a [6] = target: T1, medaka MTNR1a; settings: maximal inhibition of melatonin (EC90) effect; 100% = forskolin level; ND: not detected
Description: (§4) Hepa-E1 cells were seeded in 9 cm dishes prior to transfection. Both plasmids, pCRE-luc as well as expression vectors for medaka mtnrs were linearized by PCR and transfected with X-tremeGENE 9 (Roche) according to the manufacturer’s instructions. Stably transfected cells were selected with G418. After selection, each colony was collected by pipetting. Sensitivity for cAMP in each clone was tested by forskolin treatment after seeding into 96-well plates with E-RDF medium (Kyokuto, Tokyo, Japan) and supplemented with 5% dextran-charcoal treated fetal bovine serum. After 24 h the cells were collected, and cellular luciferase activities were measured by luminescence assay with the Steady-Glo Assay System Kit (Promega) according to the manufacturer’s instructions. […]
(§5) Cells derived from a chosen clone or MRNR1c-tranfected cells were seeded at 10^4 cells per well in 96-well luminometer plates. […] After 24 h, luciferase activities were measured as described above. Concentration-response curves were fitted and the EC50 or IC50 were calculated using sigmoidal fit in GraphPad Prism5. […] The antagonistic index (AI) of each reagent was expressed as a percentage of the maximal inhibition of the reagent. Maximal inhibition was calculated as the quotient of the subtraction of the luminescence for melatonin from the maximal luminescence for the reagent divided by the maximal inhibition of melatonin. […]

[7] = target: T2, medaka MTNR1a-like (MTNR1d); settings: maximal inhibition of melatonin (EC90) effect; 100% = forskolin level; ND: not detected
Description: as §4, §5

medaka MTNR1b [8] = target: T4, medaka MTNR1b; test: cAMP-responsive (CRE-luc) reporter gene assay, agonist mode; format: cell-based; settings: for RAA (%) MTNR1b (relative agonistic activity): maximal activity as percentage of that of melatonin, Hepa-E1 cells, forskolin, ND: not detected
From the text: as §1, §2

[9] = stably transfected Hepa-E1 cells, 6.25 × 10^−7 M forskolin, 24 h, NC: not calculable (low activity, curve did not reach maximum), read-out: Potency (M) MTNR1a
[10] = maximal activity as percentage of that of melatonin, Hepa-E1 cells, forskolin, 24 h, ND: not detected
[11] = stably transfected Hepa-E1 cells, 6.25 × 10^−7 M forskolin, 24 h, NC: not calculable (low activity, curve did not reach maximum), read-out: Potency (M) MTNR1a-like
[12] = 24 h, listed as 2-Iodomelatonin

T1 sequence (H2LVT7 1-347): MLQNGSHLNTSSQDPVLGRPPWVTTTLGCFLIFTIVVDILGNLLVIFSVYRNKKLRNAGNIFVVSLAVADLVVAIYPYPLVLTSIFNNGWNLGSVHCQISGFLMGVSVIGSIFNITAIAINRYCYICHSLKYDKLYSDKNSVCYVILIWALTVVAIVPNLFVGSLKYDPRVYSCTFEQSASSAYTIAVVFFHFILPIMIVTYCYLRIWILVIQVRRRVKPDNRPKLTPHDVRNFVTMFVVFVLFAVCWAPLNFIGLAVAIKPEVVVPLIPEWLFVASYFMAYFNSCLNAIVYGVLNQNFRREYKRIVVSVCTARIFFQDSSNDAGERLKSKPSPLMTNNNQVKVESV
T3 sequence (A0A0D6A8H7 entry or part of it): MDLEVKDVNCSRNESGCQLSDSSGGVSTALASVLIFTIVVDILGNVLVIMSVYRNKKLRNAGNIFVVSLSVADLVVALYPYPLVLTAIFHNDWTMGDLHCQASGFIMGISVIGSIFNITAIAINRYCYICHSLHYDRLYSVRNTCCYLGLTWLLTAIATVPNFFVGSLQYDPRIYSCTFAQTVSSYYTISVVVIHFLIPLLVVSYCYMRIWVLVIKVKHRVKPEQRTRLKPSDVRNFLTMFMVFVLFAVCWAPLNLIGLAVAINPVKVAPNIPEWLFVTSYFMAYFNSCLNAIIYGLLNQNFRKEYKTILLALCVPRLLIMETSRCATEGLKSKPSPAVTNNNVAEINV
T2 sequence (A0A3B3HMP3 1-354): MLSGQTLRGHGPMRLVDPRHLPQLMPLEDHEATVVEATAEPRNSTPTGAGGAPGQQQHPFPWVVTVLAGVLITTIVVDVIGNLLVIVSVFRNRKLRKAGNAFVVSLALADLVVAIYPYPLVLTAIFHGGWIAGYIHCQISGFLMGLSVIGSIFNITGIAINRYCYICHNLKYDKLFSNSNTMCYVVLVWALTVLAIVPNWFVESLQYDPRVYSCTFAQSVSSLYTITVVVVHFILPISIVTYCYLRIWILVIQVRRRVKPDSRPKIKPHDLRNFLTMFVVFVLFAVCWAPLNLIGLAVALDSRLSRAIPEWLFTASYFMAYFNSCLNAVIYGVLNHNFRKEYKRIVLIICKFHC

RAA (%) MTNR1a (relative agonistic activity) (medaka MTNR1a [1]; Hepa-E1 cells, forskolin, 24 h, ND: not detected, 1440 min): 68.2 ± 3.8%
RAA (%) MTNR1a (relative agonistic activity) (medaka MTNR1a [1]; Hepa-E1 cells, forskolin, 24 h, ND: not detected, listed as luzindole, 1440 min): less than 100%
agonistic activity in medaka MTNR1a (medaka MTNR1a [1]): exhibited agonistic activity
EC50 (medaka MTNR1a [1]; [9]): 3.3e-07 M
EC50 ([2]; MTNR1d (MTNR1a-like) transfected Hepa-E1 cells, cAMP-responsive reporter, read-out: EC50 MTNR1d): > 1e-06 M
Emax [2, 10]: 83.1%
agonistic activity in medaka MTNR1d [2]: exhibited agonistic activity
Emax (medaka MTNR1c [3]; 24 h, 24 h): 118%
EC50 (medaka MTNR1c [3]; MTNR1c-transfected Hepa-E1 cells, cAMP-responsive reporter, read-out: EC50 MTNR1c): > 1e-06 M
RAA (%) MTNR1c (relative agonistic activity) (medaka MTNR1c [3]; 24 h, 1440 min): 117.6 ± 11.5%
AI (%) MTNR1b (antagonistic index) (medaka MTNR1b [4]): did not exhibit inhibition
AI (%) MTNR1c (antagonistic index) (medaka MTNR1c [5]): did not exhibit inhibition
AI (%) MTNR1a (antagonistic index) (medaka MTNR1a [6]): did not exhibit inhibition
AI (%) MTNR1a-like (antagonistic index) [7]: did not exhibit inhibition
SMILES: CC(=O)NCCc1c(Cc2ccccc2)[nH]c2ccccc12 [Luzindole]

SMILES: COc1ccc2[nH]cc(CCNC(C)=O)c2c1 [Melatonin, N-acetyl-5-methoxytryptamine]
EC50 (medaka MTNR1a [1]): 4.8e-10 M
Emax (medaka MTNR1a [1]; 24 h, read-out: RAA (%) MTNR1a (relative agonistic activity), maximal activity as percentage of that of melatonin, Hepa-E1 cells, forskolin, 24 h, ND: not detected): 100 ± 3.8%
EC50 [2]: 2.2e-08 M
Emax ([2]; 24 h): 100 ± 2.9%
EC50 (medaka MTNR1b [8]): 1.9e-09 M
Emax (medaka MTNR1b [8]; 24 h, read-out: RAA (%) MTNR1b (relative agonistic activity)): 100 ± 4.4%
EC50 (medaka MTNR1c [3]): 6.2e-11 M
Emax (medaka MTNR1c [3]; 24 h, 24 h): 100 ± 1.8%
potency for melatonin of MTNR1c compared with MTNR1d/MTNR1a-like (medaka MTNR1c [3]; ratio of potencies between subtypes): more than three hundred-fold

SMILES: COc1ccc2[nH]c(I)c(CCNC(C)=O)c2c1 [2-Iodo melatonin, 2-Iodomelatonin]
RAA (%) MTNR1a (relative agonistic activity) (medaka MTNR1a [1]; Hepa-E1 cells, forskolin, 24 h, ND: not detected): 95.8 ± 6.9%
RAA (%) MTNR1a (relative agonistic activity) (medaka MTNR1a [1]; Hepa-E1 cells, forskolin, 24 h, ND: not detected, listed as 2-Iodomelatonin): less than 100%
EC50 (medaka MTNR1a [1]; [9]): 2.7e-11 M
RAA (%) MTNR1a-like (relative agonistic activity) [2, 10]: 69.3 ± 6.8%
RAA (%) MTNR1a-like (relative agonistic activity) ([2]; maximal activity as percentage of that of melatonin, Hepa-E1 cells, forskolin, 24 h, ND: not detected, listed as 2-Iodomelatonin): 69.3%
EC50 [2, 11]: 4e-10 M
RAA (%) MTNR1b (relative agonistic activity) (medaka MTNR1b [8]; 24 h): 101.4 ± 2.8%
RAA (%) MTNR1b (relative agonistic activity) (medaka MTNR1b [8]; [12]): equivalent to that of melatonin
EC50 (medaka MTNR1b [8]; stably transfected Hepa-E1 cells, 6.25 × 10^−7 M forskolin, 24 h, NC: not calculable (low activity, curve did not reach maximum), read-out: Potency (M) MTNR1b): 3.9e-11 M
RAA (%) MTNR1c (relative agonistic activity) (medaka MTNR1c [3]; 24 h): 111.8 ± 3.2%
RAA (%) MTNR1c (relative agonistic activity) (medaka MTNR1c [3]; [12]): 112%
EC50 (medaka MTNR1c [3]; transiently transfected Hepa-E1 cells, 6.25 × 10^−7 M forskolin, 24 h, NC: not calculable (low activity, curve did not reach maximum), read-out: Potency (M) MTNR1c): 1.3e-11 M

agonistic activity in medaka MTNR1a (medaka MTNR1a [1]): exhibited agonistic activity
EC50 (medaka MTNR1a [1]; [9]): 4.7e-09 M
RAA (%) MTNR1a-like (relative agonistic activity) [2, 10]: 68.7% and 68.7 ± 6.4%
agonistic activity in medaka MTNR1d [2]: exhibited agonistic activity
EC50 [2, 11]: 1.2e-07 M
agonistic effect on MTNR1c (medaka MTNR1c [3]; reporter assay without melatonin): no agonistic effects
AI (%) MTNR1b (antagonistic index) (medaka MTNR1b [4]): 68.3% and 68.3 ± 8.0%
IC50 (medaka MTNR1b [4]; with EC90 melatonin and forskolin, Hepa-E1 cells, 24 h, NC: not calculable, read-out: Potency (M) MTNR1b, antagonist): 1.9e-07 M
SMILES: CCC(=O)NC1Cc2ccccc2C(c2ccccc2)C1 (stereo not shown) [4P-PDOT]
